3 compounds from ChEMBL document CHEMBL1268926, “An o-aminoanilide analogue of 1α,25-dihydroxyvitamin D(3) functions as a strong vitamin D receptor antagonist” (J Med Chem, 2010) can be followed below.

Molecules are shown by their SMILES. Activity calls are given as the source filed them. No cut-off for these calls is given here.

In one assay the target is Tubulin (Homo sapiens) (UniProt P68371+Q9H4B7+P0DPH7+P68366+Q13509+Q71U36+P04350+Q3ZCM7+P07437+P68363+Q9BQE3+Q6PEY2+Q13885+Q9BVA1+Q9BUF5). The assay can be described thus: Inhibition of HDAC in human SCC25 cells assessed as hyperacetylation of tubulin at 1 uM by Western blotting. It counts as cell-based. The conditions noted are these: SCC-25.
The next assay deals with T1, Vitamin D3 receptor (Homo sapiens, UniProt P11473).
T1 sequence (P11473 whole entry): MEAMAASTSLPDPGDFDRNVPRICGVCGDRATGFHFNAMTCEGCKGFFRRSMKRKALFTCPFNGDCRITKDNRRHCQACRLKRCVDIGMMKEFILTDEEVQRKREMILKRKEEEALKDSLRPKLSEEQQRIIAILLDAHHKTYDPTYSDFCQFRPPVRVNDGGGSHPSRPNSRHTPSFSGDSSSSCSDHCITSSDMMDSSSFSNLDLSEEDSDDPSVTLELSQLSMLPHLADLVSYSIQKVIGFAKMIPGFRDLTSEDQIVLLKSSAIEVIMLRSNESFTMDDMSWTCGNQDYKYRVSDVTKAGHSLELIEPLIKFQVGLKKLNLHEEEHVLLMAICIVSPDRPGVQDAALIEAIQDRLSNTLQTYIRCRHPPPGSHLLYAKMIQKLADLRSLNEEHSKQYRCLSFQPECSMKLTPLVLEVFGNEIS
The experiment in a line: Binding affinity to VDR-LBD by fluorescence polarization competition assay. In general terms: Polarisation of emitted light reports the rotation of a fluorescent probe.

For assay [1], the target named is Histone deacetylase (Homo sapiens) (UniProt Q13547+O15379+Q9UBN7+Q92769+Q9UQL6+Q8WUI4+Q9BY41+Q96DB2+P56524+Q9UKV0+Q969S8). The assay can be described thus: Inhibition of HDAC in human SCC4 cells assessed as hyperacetylation of histone H4 at 1 uM by Western blotting. Particulars: SCC-4.
Assay [2] concerns the target T2, Vitamin D3 receptor (Homo sapiens) (UniProt P11473).
T2 sequence (whole entry): T1 sequence (P11473 whole entry)
The experiment in a line: Agonist activity at VDR in human SCC25 cells assessed as induction of CYP24 expression at 1 to 10 uM by RT-PCR analysis. It is filed as functional, cell-based. The conditions noted are these: SCC-25.

For assay [3], the target named is T2, Vitamin D3 receptor (Homo sapiens). The assay can be described thus: Agonist activity at VDR in human SCC25 cells assessed as induction of CYP24 expression at 1 to 10 uM by semiquantitative analysis. It counts as functional, cell-based. Particulars: SCC-25.
For assay [4], the target named is T3, Protein deacetylase HDAC6 (Homo sapiens) (UniProt Q9UBN7).
T3 sequence (whole entry): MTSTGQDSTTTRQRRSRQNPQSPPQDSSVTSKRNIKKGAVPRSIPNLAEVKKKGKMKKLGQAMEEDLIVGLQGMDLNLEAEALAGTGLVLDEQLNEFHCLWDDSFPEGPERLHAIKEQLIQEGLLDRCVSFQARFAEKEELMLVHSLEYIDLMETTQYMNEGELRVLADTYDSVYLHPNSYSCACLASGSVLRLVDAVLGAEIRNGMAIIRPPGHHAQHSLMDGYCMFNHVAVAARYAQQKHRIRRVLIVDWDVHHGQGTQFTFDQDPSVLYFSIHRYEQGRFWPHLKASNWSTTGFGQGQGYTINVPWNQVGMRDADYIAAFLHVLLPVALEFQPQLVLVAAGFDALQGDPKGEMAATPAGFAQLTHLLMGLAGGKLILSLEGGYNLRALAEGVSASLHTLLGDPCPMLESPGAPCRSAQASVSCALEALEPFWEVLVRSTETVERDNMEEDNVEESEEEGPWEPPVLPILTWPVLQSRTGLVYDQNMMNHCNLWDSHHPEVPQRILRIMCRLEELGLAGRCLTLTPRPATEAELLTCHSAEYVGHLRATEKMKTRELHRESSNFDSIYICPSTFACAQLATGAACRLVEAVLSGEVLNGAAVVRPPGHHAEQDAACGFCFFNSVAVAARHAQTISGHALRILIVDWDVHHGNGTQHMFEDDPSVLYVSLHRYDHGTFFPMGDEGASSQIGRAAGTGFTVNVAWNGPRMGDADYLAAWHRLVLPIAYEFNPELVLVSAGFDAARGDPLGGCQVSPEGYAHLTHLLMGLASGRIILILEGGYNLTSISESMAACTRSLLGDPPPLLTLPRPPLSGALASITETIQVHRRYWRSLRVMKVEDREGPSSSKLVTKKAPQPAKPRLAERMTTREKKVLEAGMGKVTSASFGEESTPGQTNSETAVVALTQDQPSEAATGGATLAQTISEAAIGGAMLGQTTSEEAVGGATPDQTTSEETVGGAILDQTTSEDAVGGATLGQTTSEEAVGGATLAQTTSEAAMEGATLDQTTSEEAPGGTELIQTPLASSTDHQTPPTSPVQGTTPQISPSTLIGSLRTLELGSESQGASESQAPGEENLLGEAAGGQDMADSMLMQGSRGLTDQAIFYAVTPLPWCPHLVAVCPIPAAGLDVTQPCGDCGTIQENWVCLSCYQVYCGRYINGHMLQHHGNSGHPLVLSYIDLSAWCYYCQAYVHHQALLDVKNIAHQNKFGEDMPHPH
The experiment in a line: Inhibition of human recombinant HDAC6 up to 1 mM by fluorescence assay.

Assay [5] addresses T2, Vitamin D3 receptor (Homo sapiens). Particulars: 1uM.
Description: Inhibition of VDR agonist-mediated AIB1 recruitment to CYP24 promoter in ChIP assay at 1uM

With `C[C@H](CCCCC(=O)Nc1ccccc1N)[C@H]1CC[C@H]2/C(=C/C=C3C[C@@H](O)C[C@H](O)C3)CCC[C@]12C`, the inhibition result (at Tubulin (Homo sapiens); in assay [1]) was “Active” each time. At Vitamin D3 receptor, the half-inhibitory concentration (IC50) (commonly the concentration needed to halve the response being measured) was found to be 248 nM.
For the compound `C=C1/C(=C\C=C2/CCC[C@]3(C)[C@@H]([C@H](C)/C=C/[C@@H](O)C4(C(=O)OCCCC)CC4)CC[C@@H]23)C[C@@H](O)C[C@@H]1O`, the outcome in assay [2] and in assay [3] was Active.
On to `CC(/C=C/C(=O)Nc1ccccc1N)=C\[C@@H](C)[C@H]1CC[C@H]2/C(=C/C=C3CC(O)C[C@H](O)C3)CCC[C@]12C` (single isomer, unassigned), for which the inhibition entry (in assay [4]; on Tubulin (Homo sapiens); in assay [1]) was “inactive” each time. In assay [5], the inhibition result was “Active”. Further, the result in assay [2] and in assay [3] was inactive. For the same compound, the IC50 on Vitamin D3 receptor was determined as 107 nM.
